Patent US7071206B2, “Agents for treating neurodegenerative disorders” (Medivation, Inc., priority 1995, dated 2006)
“And” between values parts separate entries of the source, which are not always exact repeats. Equal values may be shown once.

System: patients suffering from Alzheimer's disease
Test: Clinical trial of dimebon tablets, inventors' scale (E. E. Bukatina et al.; 0 = absence of a symptom, 4 = greatest manifestation)
Assay type: in vivo, human
Settings: for Degree of irritability, M +/− m: mean of 7 patients having this symptom; for Values of cognitive functions, M +/− m: mean of 7 patients with unprofound dementia; for Marked depressive manifestation, M +/− m: mean of 8 patients with evident depression prior to treatment; for Intensity of headache, M +/− m: mean of 10 patients having this symptom; for number of patients with abatement or complete cessation of headaches / share of patients with abatement or complete cessation of headaches: of 10 patients
Protocol: The test was carried out under the direct supervision by two of the inventors, namely E. E. Bukatina and V. Grigorieva, in 14 patients who agreed to take part in the tests, 13 of whom lived in a boarding house for senile persons and one patient lived with their family.
Alzheimer's disease was diagnosed on the basis of criteria ICD-10 NINCDS ADRDA.
Dimebon in the form of tablets (comprising 10 mg of dimebon, 30 mg of lactose, 5 mg of magnesium stearate was prescribed for oral administration in a dose of 0.02 g three to times a day. The patients living in the boarding house received dimebon for 58 days. A patient (observation 14) who was under outpatient observation continued taking the agent for a month after the completion of the tests.
Before the treatment with dimebon, and at 4 and 8 weeks after treatment the patients were examined according to Hazegawa's scale and the inventors' scale (“Social and Clinical Psychiatry”, 1992, No.4, pp.29–37) which includes the following indexes: (1) orientation in locality, time, immediate surroundings and one's own personality; (2) orientation in space; (3) memory for the past; (4) memory for the present; (5) “life in the past”; (6) (a) articulation, (b) difficulty in finding words, and distortion of words; (c) naming of objects; (d) following instructions; (7) concentration (of attention); (8) an affective sphere; (a) high spirits, (b) low spirits; (9) delirium; (10) hearing hallucinations; (11) visual hallucinations; (12) senile or senile-like confusion (when motion anxiety is accompanied by the revival of the past experience); (13) irritability; (14) anxiety; (15) asthenia; (16) headaches; (17) dizziness; (18) tearfulness; (19) spontaneous activity; (20) elementary self-service; and (21 control of sphincters.
According to the Hazegawa's scale, the 0 score indicates the poorest result; on the contrary, according to the inventors' scale, the 0 score indicates the absence of a symptom 4 score indicates the greatest manifestation thereof. […] Before the therapy was started, the patients had been independently examined by two doctors who used the inventors' scale. The examination during the treatment was carried out by the doctors using both the scales. The evaluation according to all the inventors' scale points during all the tests and their variations during the treatment with dimebon are given in the Appendix.
According to the inventors' scale, the degree of the disturbance if the cognitive functions was determined by a sum of evaluations according to the first 5 scale points reflecting the condition of memory, orientation and relation with the reality. The disturbance of speech was dealt with separately and was determined by a sum of evaluations according to items 6b-6d.
Both absolute evaluations of the signs under investigation (the evaluation prior to treatment is a mean evaluation of the two examinations) and variations in them were analysed in the course of therapy. In doing so, only those changes that were beyond the range of evaluations obtained in two pre-treatment examinations were taken into consideration.
The test results reflected the condition of the patients at the time of the examination. Any changes in the metal state observed in the interval between the tests and disappearing by the moment of examination according to the scale were described in the section “Clinical Observations”.
The statistical data processing was carried out by means of Student's t-test and Fisher's “Fi” criterion.

[1] = change at 8 weeks vs K1, K2, per patient, listed as dimebon
[2] = marked (by more than 1 score), 8 weeks
[3] = mean of 14 patients, after 4 weeks
[4] = mean of 14 patients, after 8 weeks
[5] = of 11 patients with depressive symptoms prior to treatment, 4 weeks

In the case of `Cc1ccc2c(c1)c1c(n2CCc2ccc(C)nc2)CCN(C)C1` [No. 10, 2,8-dimethyl-5-[2-(6-methyl-3-pyridyl)ethyl]-2,3,4,5-tetrahydro-1H-pyrido[4,3-b]indole], the “2. Orientation in space, Changes (8 weeks)” value [1] is reported as “+1 and +0.5”, the “4. Memory for the present, Changes (8 weeks)” value [1] is reported as −0.5 (2×) and +1 and +0.5 (4×) and the “5. Life in the past, Changes (8 weeks)” value [1] is reported as “+0.5 (4×) and +1 (2×)”. The “6b. Difficulty in finding words, Changes (8 weeks)” value [1] was 0 and −0.5, the “6c. Naming of objects, Changes (8 weeks)” value [1] was “+0.5 (3×) and +1” and the “7. Concentration, Changes (8 weeks)” value [1] was −0.5 (2×) and +0.5. The “8b. Lower spirits, Changes (8 weeks)” value [1] was “+1.5 and +1 (3×) and +2 and −1 and +0.5 and −5”, the “9. Delirium, Changes (8 weeks)” value [1] was “+1.5 and 0 (2×) and +2” and the “13. Irritability, Changes (8 weeks)” value [1] was “+1.5 and +1 (2×) and −1.5 and 0”. For the same compound, the “14. Anxiety, Changes (8 weeks)” value [1] was “+0.5 and +1 and −0.5”, the “16. Headache, Changes (8 weeks)” value [1] was “+0.5 and +2 and +1.5 and −1” and the “17. Dizziness, Changes (8 weeks)” value [1] was 1 and −2 (2×) and +1 (2×) and −0.5. The “18. Tearfulness, Changes (8 weeks)” value [1] was “+1 and +2”, the “19. Spontaneous activity, Changes (8 weeks)” value [1] was “+1 and 0 (3×) and −1” and the “20. Elementary self-service, Changes (8 weeks)” value [1] was “+1 and −1”. For the same compound, the “6d. Performing instructions, Changes (8 weeks)” value [1] was −1.5 and −1 (2×) and +0.5 and +1 (2×) and 0, the “aggravation or emergence of irritability” value (during treatment) was “Not a single observation” and the “first emergence of delirium” value (during treatment) was “not a single case”. The “Speech functions (items 6b, c, d): deteriorations, %” value (from here on “Speech functions … deteriorations, %”) [2] was 2.4%, the “Speech functions (items 6b, c, d): deteriorations, abs.” value [2] was 1 and the “Degree of irritability, M +/− m” value (after 4 weeks) was 0.43 +/− 0.28 scores. The “Degree of irritability, M +/− m” value (after 8 weeks) was 0.29 +/− 5.17 scores, the “Variations of cognitive function, M +/− m” value (mean of 7 patients with unprofound (mild) dementia, 4 weeks, listed as Demibon) was “+0.5 +/− 0.14 score” and the “Variations of cognitive function, M +/− m” value (mean of 7 patients with unprofound (mild) dementia, 4 weeks, listed as dimebon) was 0.5±0.14 score. For the same compound, the “Variations of cognitive function, M +/− m” value (mean of 7 patients with unprofound (mild) dementia, 8 weeks) was “+1.79 +/− 0.35 score”, the “Values of cognitive functions, M +/− m” value (after 4 weeks) was 5.5 +/− 0.79 score and the “Values of cognitive functions, M +/− m” value (after 8 weeks) was 3.93 +/− 0.5 score. The “Marked depressive manifestation, M +/− m” value (after 4 weeks) was 0.69 +/− 0.23 scores, the “Marked depressive manifestation, M +/− m” value (after 8 weeks) was 0.69 +/− 0.18 scores and the “Intensity of headache, M +/− m” value (after 4 weeks) was 0.45 +/− 0.29 scores. For the same compound, the “Intensity of headache, M +/− m” value (after 8 weeks) was 0.9 +/− 0.31 scores, the “Variations of cognitive function, M +/− m” value (mean of 14 patients, 4 weeks) was −0.43 +/− 0.15 score and the “Variations of speech function, M +/− m” value (mean of 14 patients, 4 weeks) was −0.18 +/− 0.14. For the same compound, the “Variations of cognitive function, M +/− m” value (mean of 14 patients, 8 weeks) was “+1.14 +/− 0.26 score”, the “Variations of speech function, M +/− m” value (mean of 14 patients, 8 weeks) was −0.04 +/− 0.22 and the “Evaluation of speech function, M +/− m” value [3] was 1.61 +/− 0.44 scores. The “Values of cognitive function (sum of first 5 scale points), M +/− m” value [3] was 8.32 +/− 0.93 score, the “Evaluation of speech function, M +/− m” value [4] was 1.39 +/− 0.47 scores and the “Values of cognitive function (sum of first 5 scale points), M +/− m” value [4] was 7.21 +/− 0.82 score. For the same compound, the “Cognitive functions (first 5 scale points): improvements, %” value (moderate (by 1 score), 4 weeks) was 5.7%, the “Cognitive functions (first 5 scale points): improvements, abs.” value (moderate (by 1 score), 4 weeks) was 4 and the “Speech functions … deteriorations, %” value (moderate (by 1 score), 4 weeks) was 2.4%. The “Speech functions (items 6b, c, d): deteriorations, abs.” value (moderate (by 1 score), 4 weeks) was 1, the “Speech functions (items 6b, c, d): improvements, %” value (moderate (by 1 score), 4 weeks) was 7.14% and the “Speech functions (items 6b, c, d): improvements, abs.” value (moderate (by 1 score), 4 weeks) was 3. The “Cognitive functions (first 5 scale points): improvements, %” value (moderate (by 1 score), 8 weeks) was 8.6%, the “Cognitive functions (first 5 scale points): improvements, abs.” value (moderate (by 1 score), 8 weeks) was 6 and the “Speech functions … deteriorations, %” value (moderate (by 1 score), 8 weeks) was 4.8%. For the same compound, the “Speech functions (items 6b, c, d): deteriorations, abs.” value (moderate (by 1 score), 8 weeks) was 2, the “Speech functions (items 6b, c, d): improvements, %” value (moderate (by 1 score), 8 weeks) was 7.1% and the “Speech functions (items 6b, c, d): improvements, abs.” value (moderate (by 1 score), 8 weeks) was 3. The “number of patients showing no signs of tearfulness” value (of 5 patients with tearfulness prior to treatment, after four weeks) was 4 patients, the “number of patients with abatement or complete cessation of headaches” value (after 4 weeks) was “Five” and the “share of patients with abatement or complete cessation of headaches” value (after 4 weeks) was 50%. The “number of patients with abatement or complete cessation of headaches” value (after 8 weeks) was 3 patients, the “share of patients with abatement or complete cessation of headaches” value (after 8 weeks) was 30% and the “number of patients in whom the depression abated” value [5] was 5 patients. For the same compound, the “share of patients in whom the depression abated” value [5] was 45% and the “number of patients with improvement of depression” value (of 11 patients with depressive symptoms prior to treatment, 8 weeks) was 6 patients.
